The values that follow are results of earlier work, collected in patent publication US10894006B2, “Nanoparticles for the encapsulation of compounds, preparation thereof and use of same” (CENTRO NACIONAL DE TECNOLOGÍA Y SEGURIDAD ALIMENTARIA, …, priority 2010, dated 2021).

SMILES strings stand for the structures. Read-outs that look alike come from different tables or passages of the source.

Take `Nc1nc2ncc(CNc3ccc(C(=O)N[C@@H](CCC(=O)O)C(=O)O)cc3)nc2c(=O)[nH]1` [Non-encap FA, folic acid]: the solubility entry runs as follows: (in slightly alkaline aqueous solution) “freely soluble”; (in water) “slightly soluble”.
